The numbers were not newly measured in US20110281920A1, “INJECTABLE PARASITICIDAL FORMULATIONS OF LEVAMISOLE AND MACROCYCLIC LACTONES” (priority 2010, published 2011), which cites them from elsewhere.

The conditions of data set [1]: lactating mammals; ratio of 1 = even distribution between milk and plasma.

For the compound `c1ccc([C@H]2CN3CCSC3=N2)cc1` [Levamisole], the Solubility in water result was “water soluble”.
As for eprinomectin, the Solubility in water entry is given as “nearly water insoluble”. Also, in data set [1], the “milk to plasma partition ratio” value is on record as approximately 0.2.
